# Data published in patent US20240139148A1, “COMPOSITIONS AND METHODS FOR TREATING NON-TUBERCULOUS MYCOBACTERIAL INFECTIONS” (priority 2021, published 2024).
# Like-named read-outs stand apart in the source and are kept apart here.
# Assays:
# MabsΔdosRS [1] = assay type: cell-based, M. abscessus subsp. abscessus; settings: for decrease in survival compared to the DMSO-treated mutant control: 7 d under hypoxia, AMK 64 mg L^−1, AZI 32 mg L^−1, CFZ 2 mg L^−1; for susceptibility of the dosRS mutant to AMI or AZI after DosS inhibitor treatment: 40 μM DosS inhibitor, AMI 64 mg L^−1, AZI 32 mg L^−1, 7 d hypoxia; for decrease in viability compared to DMSO control: 40 μM, 7 d of hypoxia
# WT Mabs ATCC 19977 [2] = assay type: cell-based, M. abscessus subsp. abscessus; settings: for tolerance to antibiotics under hypoxia: 7 d treatment, AMK 64, AZI 32, CFZ 2, IMI 32 mg L^−1; for decrease in viability compared to DMSO-treated controls: WT strain, 40 μM, 7 d of hypoxia; for tolerance of DosS inhibitor-treated cells to AZI: AZI for 7 d under hypoxia; for tolerance of DosS inhibitor-treated cells to CFZ: CFZ for 7 d under hypoxia
# [3] = system: MabsΔdosRS complemented with dosRS; assay type: cell-based, M. abscessus subsp. abscessus; settings: for tolerance to antibiotics under hypoxia: dosRS complemented mutant, 7 d treatment, AMK 64, AZI 32, CFZ 2, IMI 32 mg L^−1; for decrease in viability compared to DMSO-treated controls: dosRS complemented strain, 40 μM, 7 d of hypoxia
# Mabs ATCC 19977 biofilms = assay: Biofilm dispersal assay on established 4-d old biofilms; assay type: cell-based, M. abscessus subsp. abscessus; settings: 24 h in PBS
# Mabs ATCC 19977 = assay: MIC determination (resazurin blue test); assay type: cell-based, M. abscessus subsp. abscessus; settings: Mycobacteroides abscessus, ATCC19977, 120 h, read-out: Minimum Inhibitory Concentrations (MICs)
# WT Mabs ATCC 19977 [4] = assay: Biofilm formation assay in SCFM (crystal violet staining); assay type: cell-based, M. abscessus subsp. abscessus; settings: Mycobacteroides abscessus, ATCC19977, 120 h, read-out: IC50 values (required to inhibit 50% of biofilm formation)
# MabsΔdosRS [5] = assay: RNA-seq transcriptional profiling under microaerophilic conditions, dosRS KO mutant; settings: 20 μM
# [6] = system: NO-signaling (dosR induction); assay: NO signaling: RT-qPCR of dosR after Spermine NONOate; assay type: cell-based, M. abscessus subsp. abscessus; settings: 50 μM inhibitor for 1 h, then Spermine NONOate 50 μM for 40 min
# Method: FIG. 18: Effect of DosS inhibitors on NO signaling. Mabs ATCC 19977 was grown to OD ˜0.3 in 7H9-ADC-Tween 80, treated for 1 h with either DMSO (control) or 50 μM of DosS inhibitors, followed by addition of Spermine NONOate (50 μM final concentration). […] Ratios of dosR/sigA mRNA are means±SD (n=3 RNA extractions and RT-qPCR reactions).
# Since the DosRS pathway of MABSC has been reported to be induced by NO, RT-qPCR was used to determine whether ART, OZ439, and MSU-39446 inhibited the induction of DosR-regulated genes in WT Mabs ATCC 19977 following treatment with spermine/nitric oxide (Spermine/NO) for 40 min.
# [7] = target: Mabs ATCC 19977 DosS (MAB_3890c) (Mycobacteroides abscessus, UniProt B1MH83); assay: UV-visible spectroscopy assay of DosS heme redox status; assay type: biochemical, M. abscessus subsp. abscessus; settings: 100 μM; DTN-reduced DosS (427 nm); at time 0
# Description: FIG. 7: Inhibition of the sensor kinase heme of DosS by ART, OZ439 and MSU-39446. UV-visible spectra of DosS showing treatment with dithionite (DTN) reduces the heme, which is the “on” state for the kinase. ART, OZ439 and MSU-39446, but not the degassed DMSO control, oxidize the heme.
# UV-visible spectroscopy assay and mass spectrometry. A recombinant form of Mabs ATCC 19977 DosS (MAB_3890c) was produced in E. coli BL21(DE3) using the pET14b expression system (Novagen, Madison, WI) and pGro7, and purified essentially as described. Briefly, His-DosS expression was induced by isopropyl-thio-β-D-galactopyranoside (IPTG, 0.5 mM) at 16° C. for 20 h. The cell pellet was suspended in lysis buffer (50 mM sodium phosphate (pH 7.6), 10% glycerol, 200 mM sodium chloride, 1% Triton X-100, 0.5 mg mL^−1 lysozyme, 0.1 mg mL^−1 PMSF) and the cell suspension was incubated with shaking at 37° C. for 30 min prior to lysis using a French press (1400-1800 PSI). The soluble extract was applied to a Co^2+ column (Clontech) and washed with washing buffers (with or without 20 mM imidazole in 50 mM sodium phosphate (pH 7.6), 10% glycerol and 500 mM sodium chloride). […] The absorption spectrum of Mabs DosS ([…]) was analyzed as previously described. […] The UV-visible spectra were recorded for kinetic changes over 2 h using a UV-1800 spectrophotometer (Shimadzu). […]
# WT Mabs ATCC 19977 [8] = assay: Chronic SCID mouse model of MABSC infection; settings: SCID mice; 50 mg/kg gavage every other day for 28 d
# WT Mabs ATCC 19977 [9] = assay: Acute SCID mouse model of MABSC infection; settings: SCID mice
# in vivo = settings: SCID, mouse, po, 50 mg/kg
# Method: (A) Exposure of OZ439 in Mabs ATCC 19977-infected SCID mice. In the acute model, mice received OZ439 orally (200 mg/kg) every other d for 14 d. In the chronic model, mice received OZ439 orally (50 mg/kg) every other d for 28 d. Shown are the averages (±SD) of lung and plasma concentrations 2 and 48 hs after the last dosing. Two mice were used per time point in the acute model. Four mice were used per time point in the chronic model.
# (A) Exposure of OZ277 in Mabs ATCC 19977-infected SCID mice. Mice received OZ277 orally (200 mg/kg) daily for 14 days. Shown are the averages (±SD) of lung and plasma concentrations 2 and 24 hours after the last dosing. Two mice were used per time point.
# Four to eight Mabs ATCC 19977-infected SCID mice (2 to 4 mice per time point) having received OZ277 and OZ439 as stand-alone drugs by gavage were ethically euthanized on the last day of the experiment for comparison of drug concentrations in the plasma and lung tissues 2 and 24 h (OZ277) or 2 and 48 h (OZ439) after the last dose. For quantitation of OZ277 and OZ439 by HPLC coupled to tandem mass spectrometry (LC-MS/MS), 1 mg mL^−1 DMSO stock solutions of OZ277 and OZ439 were serially diluted in 50/50 acetonitrile/water to create standard curves and quality control spiking solutions. […] Lung tissues were weighed and homogenized in 19 volumes of PBS containing 1% formic acid to 1 part tissue that was pre-chilled. […]
# [10] = in SCFM and cation-adjusted Mueller-Hinton II media, 5 d at 37° C., higher concentrations not tested due to solubility
# [11] = 5 d of growth in SCFM, poly-D-lysine-coated plates
# [12] = 200 mg/kg gavage for 14 days (OZ439 every other day)
# Method for THP-1 cells: FIG. 21: THP-1 cells were plated at 1×10^6 cells per ml in 24-well plates and treated for 24 hrs. with 10 ng/ml PMA for differentiating to macrophages. PMA medium was removed, and cells were cultured for an additional 24 hrs. Cells were then treated with either nothing, 300 ng/ml LPS or either Mabs ATCC19977 (smooth) or Mabs ATCC19977 (rough)(aka CipR) at an MOI of 5. After 9 h, the medium was removed and replaced with medium containing either nothing or 6 μM of OZ439 in triplicate wells and THP-1 cells were cultured for an additional 30 hr. Supernatants were harvested and assayed for NO production by the Griess Assay. Half the cells were stained with H2DCFDA for ROS analysis and half were stained for macrophage activation markers and analyzed by flow cytometry. Statistical differences between treatment groups were determined by one way ANOVA with Dunnett's multiple comparison test (*=p<0.05; ***=p<0.001; ****=p<0.0001).
# THP-1 cells were plated at 1×10^6 cells per ml in 24-well plates and treated for 24 hrs. with 10 ng/ml PMA for differentiating to macrophages. PMA medium was removed, and cells were cultured for an additional 24 hrs. Cells were then treated with either nothing, 300 ng/ml LPS or either Mabs ATCC19977 (smooth) or Mabs ATCC19977 (rough) (aka CipR) at an MOI of 5. After 9 h, the medium was removed and replaced with medium containing either nothing or 6 μM of OZ439 in triplicate wells and THP-1 cells were cultured for an additional 30 hr. Supernatants were harvested and assayed for NO production by the Griess Assay. Half the cells were stained with H2DCFDA for ROS analysis and half were stained for macrophage activation markers and analyzed by flow cytometry. Statistical differences between treatment groups were determined by one way ANOVA with Dunnett's multiple comparison test (*=p<0.05; ***=p<0.001; ****=p<0.0001).
# Sequence of Mabs ATCC 19977 DosS (MAB_3890c) (B1MH83 entry or part of it): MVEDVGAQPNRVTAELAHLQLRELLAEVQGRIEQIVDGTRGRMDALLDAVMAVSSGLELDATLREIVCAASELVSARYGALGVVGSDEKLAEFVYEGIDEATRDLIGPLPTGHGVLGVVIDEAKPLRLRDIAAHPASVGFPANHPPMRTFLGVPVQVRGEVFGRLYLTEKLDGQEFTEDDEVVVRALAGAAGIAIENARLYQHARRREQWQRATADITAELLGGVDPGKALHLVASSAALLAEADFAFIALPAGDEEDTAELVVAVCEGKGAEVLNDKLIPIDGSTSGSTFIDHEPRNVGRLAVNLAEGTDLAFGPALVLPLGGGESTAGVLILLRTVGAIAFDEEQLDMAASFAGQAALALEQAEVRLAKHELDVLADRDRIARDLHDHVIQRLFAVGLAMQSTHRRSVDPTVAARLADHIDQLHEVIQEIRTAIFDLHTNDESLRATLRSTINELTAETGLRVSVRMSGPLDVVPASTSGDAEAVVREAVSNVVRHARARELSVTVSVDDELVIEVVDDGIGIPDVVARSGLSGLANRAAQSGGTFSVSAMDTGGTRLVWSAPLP
compound,measurement,setting,value
"NCC[C@H](O)C(=O)N[C@@H]1C[C@H](N)[C@@H](O[C@H]2O[C@H](CN)[C@@H](O)[C@H](O)[C@H]2O)[C@H](O)[C@H]1O[C@H]1O[C@H](CO)[C@@H](O)[C@H](N)[C@H]1O [AMK, amikacin]",decrease in survival compared to the DMSO-treated mutant control,MabsΔdosRS [1],15%
same,tolerance to antibiotics under hypoxia,WT Mabs ATCC 19977 [2]; WT,fully tolerant to all antibiotics
same,tolerance to antibiotics under hypoxia,[3],fully tolerant to all antibiotics
"CC[C@H]1OC(=O)[C@H](C)[C@@H](O[C@H]2C[C@@](C)(OC)[C@@H](O)[C@H](C)O2)[C@H](C)[C@@H](O[C@@H]2O[C@H](C)C[C@H](N(C)C)[C@H]2O)[C@](C)(O)C[C@@H](C)CN(C)[C@H](C)[C@@H](O)[C@]1(C)O [AZI, azithromycin]",decrease in survival compared to the DMSO-treated mutant control,MabsΔdosRS [1],64%
same,tolerance to antibiotics under hypoxia,WT Mabs ATCC 19977 [2]; WT,fully tolerant to all antibiotics
same,tolerance to antibiotics under hypoxia,[3],fully tolerant to all antibiotics
"C[C@H]1[C@H](OC(=O)CCC(=O)O)O[C@@H]2O[C@@]3(C)CC[C@H]4[C@H](C)CC[C@@H]1[C@@]24OO3 [AS, artesunate]",dispersal of established biofilms,Mabs ATCC 19977 biofilms,none of the compounds dispersed the biofilms
same,MIC,Mabs ATCC 19977,> 400 µM
same,IC50,WT Mabs ATCC 19977 [4],800 to 1600 nM
"CC(C)/N=c1\cc2n(-c3ccc(Cl)cc3)c3ccccc3nc-2cc1Nc1ccc(Cl)cc1 [CFZ, clofazimine]",decrease in survival compared to the DMSO-treated mutant control,MabsΔdosRS [1],52%
same,tolerance to antibiotics under hypoxia,WT Mabs ATCC 19977 [2]; WT,fully tolerant to all antibiotics
same,tolerance to antibiotics under hypoxia,[3],fully tolerant to all antibiotics
"C[C@@H]1CC[C@H]2[C@@H](C)C(=O)O[C@@H]3O[C@@]4(C)CC[C@@H]1[C@]32OO4 [ART, artemisinin]",number of downregulated genes in the treated mutant,MabsΔdosRS [5],22
same,dispersal of established biofilms,Mabs ATCC 19977 biofilms,none of the compounds dispersed the biofilms
same,susceptibility of the dosRS mutant to AMI or AZI after DosS inhibitor treatment,MabsΔdosRS [1],did not significantly enhance the susceptibility
same,decrease in viability compared to DMSO control,MabsΔdosRS [1],did not exhibit any significant decrease in viability
same,inhibition of NO-signaling (dosR induction),[6],none of the inhibitors tested inhibited NO-signaling
same,MIC,Mabs ATCC 19977; [10],> 400 µM
same,DosS Soret peak position,[7],421 nm
same,decrease in viability compared to DMSO-treated controls,WT Mabs ATCC 19977 [2],1.12 log10 CFU
same,tolerance of DosS inhibitor-treated cells to AMK,"WT Mabs ATCC 19977 [2]; WT, 40 μM DosS inhibitor, AMK for 7 d under hypoxia",decrease in the tolerance
same,tolerance of DosS inhibitor-treated cells to AZI,"WT Mabs ATCC 19977 [2]; WT, 40 μM DosS inhibitor",decrease in the tolerance
same,tolerance of DosS inhibitor-treated cells to CFZ,"WT Mabs ATCC 19977 [2]; WT, 40 μM DosS inhibitor",unaffected
same,IC50,WT Mabs ATCC 19977 [4]; [11],800 to 1600 nM
same,decrease in viability compared to DMSO-treated controls,[3],0.64 log10 CFU
"c1cc([C@H]2CC[C@]3(CC2)OO[C@]2(O3)C3CC4CC(C3)CC2C4)ccc1OCCN1CCOCC1 [OZ439, artefenomel]",number of downregulated genes in the treated mutant,MabsΔdosRS [5],10
same,dispersal of established biofilms,Mabs ATCC 19977 biofilms,none of the compounds dispersed the biofilms
same,"efficacy by itself (bacterial loads in lungs, liver and spleen)",WT Mabs ATCC 19977 [8],comparable to that of all four antibiotics
same,susceptibility of the dosRS mutant to AMI or AZI after DosS inhibitor treatment,MabsΔdosRS [1],did not significantly enhance the susceptibility
same,decrease in viability compared to DMSO control,MabsΔdosRS [1],did not exhibit any significant decrease in viability
same,inhibition of NO-signaling (dosR induction),[6],none of the inhibitors tested inhibited NO-signaling
same,reduction in bacterial load in the lung,WT Mabs ATCC 19977 [9]; 200 mg/kg gavage every other day for 14 d,~1.8 log10
same,"bacterial burdens in lungs and liver, compound by itself",WT Mabs ATCC 19977 [9]; [12],significantly reduced bacterial burdens
same,MIC,Mabs ATCC 19977; [10],400 µM
same,decrease in viability compared to DMSO-treated controls,WT Mabs ATCC 19977 [2],1.18 log10 CFU
same,tolerance of DosS inhibitor-treated cells to AZI,"WT Mabs ATCC 19977 [2]; WT, 40 μM DosS inhibitor",decrease in the tolerance
same,tolerance of DosS inhibitor-treated cells to CFZ,"WT Mabs ATCC 19977 [2]; WT, 40 μM DosS inhibitor",unaffected
same,IC50,WT Mabs ATCC 19977 [4]; [11],800 to 1600 nM
same,expression of macrophage activation markers,"THP-1 cells; 6 μM OZ439 alone, non-infected",increased expression of some macrophage activation markers (MHC class II and CD80)
same,NO production (Griess Assay),"THP-1 cells; 6 μM, THP-1 infected with Mabs ATCC19977 smooth strain, 30 hr",reverted this activation
same,"expression of macrophage activation markers (MHC class II, CD80, CD86, CD40)","THP-1 cells; 6 μM, THP-1 infected with Mabs, vs not treated",significant increases in all macrophage activation markers
same,ROS (H2DCFDA),"THP-1 cells; 6 μM, absence of Mabs infection",upregulated
same,ROS production (H2DCFDA),"THP-1 cells; 6 μM, cultures infected with Mabs (rough or smooth)",decreased
same,concentration at 2 h,in vivo,~6.2 µM
same,concentration at 48 h,in vivo,~3.9 µM
same,decrease in viability compared to DMSO-treated controls,[3],0.72 log10 CFU
"CC(C)(N)CNC(=O)C[C@H]1CC[C@]2(CC1)OO[C@]1(O2)C2CC3CC(C2)CC1C3 [OZ277, arterolane]",dispersal of established biofilms,Mabs ATCC 19977 biofilms,none of the compounds dispersed the biofilms
same,"bacterial burdens in lungs and liver, compound by itself",WT Mabs ATCC 19977 [9]; [12],significantly reduced bacterial burdens
same,"bacterial burdens in spleen, compound by itself",WT Mabs ATCC 19977 [9]; [12],significantly reduced bacterial burdens
same,"adjunct efficacy in combination with antibiotics (AMK, AZI, IMI, CFZ)","WT Mabs ATCC 19977 [9]; 200 mg/kg gavage, vs antibiotics alone",No statistically significant differences
same,MIC,Mabs ATCC 19977; [10],> 400 µM
same,IC50,WT Mabs ATCC 19977 [4]; [11],800 to 1600 nM
